# Assay results taken from patent US20210386752A1, “Uses of Electron Transport Chain Complex I or Complex II Inhibitors in Treating Cancer, Combination Therapies, and Diagnostic Methods Related Thereto” (Emory University, priority 2020, published 2021).
# Assays:
# [1] = molecular target: T1, citrate synthase (Homo sapiens, UniProt O75390); assay: Citrate synthase (CS) activity assay; assay type: biochemical; details: TTFA-treated KMS11 cells
# T1 construct: Citrate synthase activity assay was measured in 0.3×10^6 cells harvested per sample and washed with PBS; endogenous in cells; host or cells: KMS11 multiple myeloma cells
# T1 sequence (O75390 28-466): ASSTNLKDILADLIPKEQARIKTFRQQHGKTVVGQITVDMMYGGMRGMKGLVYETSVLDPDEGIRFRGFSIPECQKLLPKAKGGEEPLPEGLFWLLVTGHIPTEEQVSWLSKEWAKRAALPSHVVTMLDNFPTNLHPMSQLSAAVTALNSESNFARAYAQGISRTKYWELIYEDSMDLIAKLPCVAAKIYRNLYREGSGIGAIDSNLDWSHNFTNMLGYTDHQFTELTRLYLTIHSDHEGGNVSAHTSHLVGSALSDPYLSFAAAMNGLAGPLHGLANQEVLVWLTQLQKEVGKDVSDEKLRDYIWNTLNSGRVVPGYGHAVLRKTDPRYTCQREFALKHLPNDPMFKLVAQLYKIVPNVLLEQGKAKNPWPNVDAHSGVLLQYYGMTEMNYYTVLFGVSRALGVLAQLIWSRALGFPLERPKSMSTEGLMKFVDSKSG
# Procedure: Citrate synthase activity assay was measured in 0.3×10^6 cells harvested per sample and washed with PBS. Cells were resuspended in 10 mM Tris (pH 8.5) and 0.1% Triton X-100 assay buffer, containing 300 μM acetyl CoA and 100 μM 5,5′-dithiobis(2-nitrobenzoic acid) (DTNB=molar extinction coefficient 13.6 mM^−1 cm^−1). Reaction was started by the addition of 0.5 mM oxaloacetic acid and change in absorbance recorded at 412 nm wavelength every min for 10 min. SQR, SDH and CS activity measurements were performed with 100 μL sample containing 0.3×10^6 permeabilized cells.
# [2] = molecular target: T2, succinate dehydrogenase (SDH) (Homo sapiens, UniProt P31040); assay: SDH activity assay in permeabilized cells; assay type: biochemical; details: TTFA-treated KMS11 cells
# T2 construct: endogenous in cells; host or cells: KMS11 multiple myeloma cells, permeabilized
# T2 sequence (P31040 43-664): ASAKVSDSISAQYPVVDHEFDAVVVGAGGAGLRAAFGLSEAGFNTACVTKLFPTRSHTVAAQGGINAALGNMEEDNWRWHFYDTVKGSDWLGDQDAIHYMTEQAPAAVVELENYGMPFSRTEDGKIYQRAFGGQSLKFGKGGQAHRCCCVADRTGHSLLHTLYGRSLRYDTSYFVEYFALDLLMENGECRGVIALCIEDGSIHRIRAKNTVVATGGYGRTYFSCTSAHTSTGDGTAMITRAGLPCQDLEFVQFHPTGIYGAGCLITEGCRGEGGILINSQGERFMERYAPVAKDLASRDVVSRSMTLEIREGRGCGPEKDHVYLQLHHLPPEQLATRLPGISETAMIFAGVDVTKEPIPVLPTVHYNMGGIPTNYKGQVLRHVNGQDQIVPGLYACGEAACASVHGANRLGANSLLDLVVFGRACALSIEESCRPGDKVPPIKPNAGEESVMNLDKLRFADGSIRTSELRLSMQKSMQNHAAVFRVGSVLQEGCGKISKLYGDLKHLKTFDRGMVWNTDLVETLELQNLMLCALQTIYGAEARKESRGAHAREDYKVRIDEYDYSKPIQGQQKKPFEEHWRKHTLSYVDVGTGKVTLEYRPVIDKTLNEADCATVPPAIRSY
# T2 sequence (P21912 29-280 partner): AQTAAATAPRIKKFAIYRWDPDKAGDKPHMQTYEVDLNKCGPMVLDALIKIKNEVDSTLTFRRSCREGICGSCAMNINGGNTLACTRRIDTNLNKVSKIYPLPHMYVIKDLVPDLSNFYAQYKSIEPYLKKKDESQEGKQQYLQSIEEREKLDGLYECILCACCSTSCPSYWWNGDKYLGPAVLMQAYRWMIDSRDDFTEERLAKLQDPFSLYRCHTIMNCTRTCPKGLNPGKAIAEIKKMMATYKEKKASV
# T2 sequence (Q99643 30-169 partner): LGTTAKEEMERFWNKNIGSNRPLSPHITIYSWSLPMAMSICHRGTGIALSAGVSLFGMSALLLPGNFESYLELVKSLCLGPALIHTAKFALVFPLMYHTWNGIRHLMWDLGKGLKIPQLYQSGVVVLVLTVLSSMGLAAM
# T2 sequence (O14521 57-159 partner): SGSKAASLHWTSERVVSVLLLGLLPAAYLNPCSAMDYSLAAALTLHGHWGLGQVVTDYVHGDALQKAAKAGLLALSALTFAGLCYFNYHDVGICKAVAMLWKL
# Excerpt: Given reduced oxygen consumption rates (OCR) in sensitive cells, the activities of mitochondrial Complex I and II were examined. Mitochondrial Complex I and II receive electrons from the electron donors NADH or FADH2 respectively, that are transferred to the terminal electron acceptor (O2) via a series of redox reactions. Complex I or NADH:Coenzyme Q:oxidoreductase is the largest multimeric respiratory complex of ETC comprised of over 40 subunits with its catalytic subunit containing the NADH binding site. Electrons from NADH are transferred to FMN and then to FeS clusters and finally to ubiquinone where ubiquinone is reduced to ubiquinol. Complex II is the only enzyme that has a direct role both in the TCA cycle and ETC. […] Complex I activity was measured using an assay that relies on immunocapture of Complex I from freshly prepared cellular protein extracts. The NADH dehydrogenase activity of immunocaptured Complex I was determined by the oxidation of NADH and simultaneous reduction of the provided dye resulting in increase in absorbance. SDH and SQR activities were measured in live permeabilized cells, containing intact mitochondria pretreated with inhibitors of Complex I (rotenone), Complex III (antimycin) and Complex IV (sodium azide), allowing for selective measurement of SQR or SDH activity. […]
smiles,measurement,setting,value
"O=C(CC(=O)C(F)(F)F)c1cccs1 [TTFA, 4,4,4-trifluoro-1-(2-thienyl)-1,3-butanedione]",CS activity,[1],remained unaffected
same,SDH activity,[2],remained unaffected
